Where “and” joins values, the source holds several entries; their conditions need not be identical. Identical values can stand only once. Like-named read-outs stand apart in the source and are kept apart here.
Columns and labels:
[1] = tested on: T. b. brucei GVR35; set-up: method as in PMID 19620327; conditions: intraperitoneal administration; cited from earlier work
[2] = tested on: T. b. rhodesiense STIB900; set-up: method as in PMID 19620327; conditions: intraperitoneal administration; cited from earlier work
[3] = Pharmacokinetics in uninfected vervet monkeys; conditions: for half-life: po, geometric mean terminal elimination half-life
[4] = tested on: T. b. brucei s427 trypanosomes; set-up: method as in PMID 21402852; conditions: 2.7 µM; cited from earlier work
[5] = Pharmacokinetics in infected vervet monkeys (first stage HAT); type: in vivo, vervet monkey; conditions: for AUClast: last measurable concentration varied (2–133 days)
[6] = tested on: T. b. rhodesiense STIB900; set-up: method as in PMID 19620327; conditions: in vitro; cited from earlier work
[7] = Metabolism of DB868 in vervet monkey liver microsomes; type: in vitro ADME; conditions: incubation of 10 µM DB868; HPLC/UV; formation confirmed by fluorescence and mass spectrometric detection
Procedure: DB868 metabolism was studied in male vervet monkey liver microsomes (custom-prepared by XenoTech, LLC, Lenexa, KS, USA) by adapting a previously published method. Briefly, incubation mixtures contained 10 µM DB868, 0.5 mg/mL monkey liver microsomes, and 3.3 mM MgCl2 in 100 mM phosphate buffer (pH 7.4). Reactions were initiated by the addition of NADPH (1 mM final concentration). Control incubations were carried out without NADPH, DB868, or liver microsomes. Aliquots (100 µL) of the reaction mixtures were removed at 0, 5, 10, 15, 30, 60 and 120 min and mixed with 100 µL of ice-cold acetonitrile. After centrifugation to pellet precipitated proteins, the supernatants were analyzed by HPLC/UV and fluorescence using the method previously described for pafuramidine (DB289) and furamidine (DB75). Metabolite identification was performed by comparing retention times to those of synthetic standards for M1 (DB1679), M2 (DB840), M3 (DB1712), and DB829. DB868 and its metabolites were quantified using a calibration curve (0.1–10 µM) generated using synthetic standards.

[8] = set-up: method as in PMID 20721830; conditions: cited from earlier work
[9] = oral administration, cited from earlier work
[10] = set-up: method as in earlier work; conditions: cited from earlier work
[11] = tested on: T. b. rhodesiense KETRI 2537; set-up: method as in PMID 19064893; conditions: oral, for 5 days; first stage HAT monkey model; cited from earlier work
[12] = after final oral dose of DB868 10 mg/kg×10 days, uninfected, individual monkeys
[13] = after final oral dose of DB868 30 mg/kg×10 days, uninfected, individual monkeys
[14] = oral DB868 10 mg/kg group, infected
[15] = oral DB868 20 mg/kg group, infected
[16] = oral DB868 20 mg/kg×5 days, infected, individual monkeys

N=C(N)c1ccc(-c2ccc(-c3ccc(C(=N)N)cn3)o2)nc1 [DB829, 2,5-bis(5-amidino-2-pyridyl)furan]
curative [1]: 100% | curative [2]: 100% | AUC0-∞ [3, 12]: 3700 nmol/L•day (2×) and 4100 nmol/L•day and 2400 nmol/L•day | AUClast [3, 12]: 3000 nmol/L•day and 2800 nmol/L•day and 2100 nmol/L•day (2×) | t1/2 (terminal elimination half-life) [3, 12]: 30 day (2×) and 55 day and 18 day | AUC0-∞ [3, 13]: 5600 nmol·days/L and 7000 nmol·days/L and 6200 nmol·days/L and 12100 nmol·days/L | AUClast [3, 13]: 4700 nmol·days/L and 5700 nmol·days/L and 4600 nmol·days/L and 7100 nmol·days/L | concentration at 4 h ([3]; both, monkey, in vivo, 10 mg/kg, C4 h, plasma concentration at 4 h after final (10th) oral dose of DB868 10 mg/kg×10 days, uninfected, individual monkeys 643, 659, 675, 677): 240 nM | concentration at 4 h ([3]; both, monkey, in vivo, 10 mg/kg/day, geometric mean C4 h, oral DB868 10 mg/kg/day×10 days, uninfected, n = 4): 185 nM | concentration at 4 h ([3]; both, monkey, in vivo, 30 mg/kg, C4 h, plasma concentration at 4 h after final (10th) oral dose of DB868 30 mg/kg×10 days, uninfected, individual monkeys 546, 567, 668, 679): 440 nM | concentration at 24 h ([3]; both, monkey, in vivo, 30 mg/kg, C24 h, plasma, 24 h after final oral dose of DB868 30 mg/kg×10 days, uninfected, individual monkeys): 360 nM | concentration at 4 h ([3]; both, monkey, in vivo, 30 mg/kg/day, geometric mean C4 h, oral DB868 30 mg/kg/day×10 days, uninfected, n = 4): 320 nM | half-life ([3]; both, monkey, in vivo, 10 mg/kg/day, oral DB868 10 mg/kg/day×10 days, uninfected (second of 'respectively'; agrees with Table 1)): 744 h | half-life ([3]; both, monkey, in vivo, 30 mg/kg/day, oral DB868 30 mg/kg/day×10 days, uninfected (first of 'respectively'; agrees with Table 1)): 696 h | geometric mean C4 h relative to IC50 (14 nmol/L) against T. b. rhodesiense STIB900 ([3]; oral DB868 10 mg/kg/day×10 days, uninfected): 13 fold | geometric mean C4 h relative to IC50 (14 nmol/L) against T. b. rhodesiense STIB900 ([3]; oral DB868 30 mg/kg/day×10 days, uninfected): 23 fold | time plasma concentrations remained >100 nmol/L after last DB868 dose ([3]; oral DB868, in some monkeys (Figures 6 and 8, uninfected and infected)): up to 7 days post-LDD | geometric mean AUC0-∞, 30 mg/kg group relative to 10 mg/kg group ([3]; oral DB868×10 days, uninfected): 2.2 fold | geometric mean AUClast, 30 mg/kg group relative to 10 mg/kg group ([3]; oral DB868×10 days, uninfected): 2.2 fold | C4 h ([3]; plasma concentration at 4 h after final (10th) oral dose of DB868 10 mg/kg×10 days, uninfected, individual monkeys 643, 659, 675, 677): 160 nM and 180 nM and 170 nM | C4 h ([3]; plasma concentration at 4 h after final (10th) oral dose of DB868 30 mg/kg×10 days, uninfected, individual monkeys 546, 567, 668, 679): 290 nM and 300 nM and 270 nM | C24 h ([3]; plasma, 24 h after final oral dose of DB868 10 mg/kg×10 days, uninfected, individual monkeys, BLQ = below limit of quantitation): 140 nM and 260 nM and 120 nM and 170 nM | C24 h ([3]; plasma, 24 h after final oral dose of DB868 30 mg/kg×10 days, uninfected, individual monkeys): 210 nM and 280 nM and 340 nM | exposure required to kill trypanosomes in culture [4]: 24 h | Cmax ([5]; after final oral dose of DB868 3 mg/kg×7 days, first stage HAT, individual monkeys 638, 643, read-out: Cmax): 230 nM | Cmax ([5]; after final oral dose of DB868 10 mg/kg×7 days, first stage HAT, individual monkeys 675, 691, read-out: Cmax): 200 nM | Tmax ([5]; after final oral dose of DB868 20 mg/kg×5 days, infected, individual monkeys): 4.08 h | Tmax ([5]; monkey, plasma, po, 3 mg/kg, oral DB868 3 mg/kg group, infected, read-out: median Tmax (converted)): 4 h | Cmax ([5]; monkey, plasma, po, 3 mg/kg/day, oral DB868 3 mg/kg/day×7 days, infected, read-out: median Cmax): 170 nM | Tmax ([5]; monkey, plasma, po, 10 mg/kg, oral DB868 10 mg/kg group, infected, read-out: median Tmax (converted)): 24 h | Cmax ([5]; monkey, plasma, po, 10 mg/kg/day, after final oral dose of DB868 10 mg/kg×7 days, first stage HAT, individual monkeys 675, 691, read-out: Cmax): 210 nM | Cmax ([5]; monkey, plasma, po, 10 mg/kg/day, oral DB868 10 mg/kg/day×7 days, infected, read-out: median Cmax): 205 nM | half-life ([5]; monkey, plasma, po, 10 mg/kg/day, oral DB868 10 mg/kg×7 days, infected, monkey 691, read-out: t1/2 (terminal elimination half-life) (converted)): 600 h | Tmax ([5]; monkey, plasma, po, 20 mg/kg, oral DB868 20 mg/kg group, infected, read-out: median Tmax (converted)): 4 h | Cmax ([5]; monkey, plasma, po, 20 mg/kg/day, after final oral dose of DB868 20 mg/kg×5 days, first stage HAT, individual monkeys 585, 658, read-out: Cmax): 370 nM | Tmax ([5]; monkey, plasma, po, 20 mg/kg/day, after final oral dose of DB868 20 mg/kg×5 days, infected, individual monkeys, read-out: Tmax (converted)): 4.08 h | Cmax ([5]; monkey, plasma, po, 20 mg/kg/day, oral DB868 20 mg/kg/day×5 days, infected, read-out: median Cmax): 435 nM | median Cmax relative to IC50 (14 nmol/L) against T. b. rhodesiense STIB900 ([5]; oral DB868 3 mg/kg/day for 7 days, infected): 12 fold | AUClast ([5]; oral DB868 3 mg/kg×7 days, infected, individual monkeys): 160 nmol·days/L and 950 nmol·days/L | mean AUClast relative to 3 mg/kg group [5, 14]: 7 fold | median Cmax relative to 3 mg/kg group [5, 14]: 1.2 fold | median Cmax relative to IC50 (14 nmol/L) against T. b. rhodesiense STIB900 ([5]; oral DB868 10 mg/kg/day for 7 days, infected): 15 fold | AUClast ([5]; oral DB868 10 mg/kg×7 days, infected, individual monkeys): 4000 nmol·days/L and 3500 nmol·days/L | AUC0-∞ ([5]; oral DB868 10 mg/kg×7 days, infected, monkey 691): 3900 nmol·days/L | mean AUClast relative to 3 mg/kg group [5, 15]: 10 fold | median Cmax relative to 3 mg/kg group [5, 15]: 2.6 fold | median Cmax relative to IC50 (14 nmol/L) against T. b. rhodesiense STIB900 ([5]; oral DB868 20 mg/kg/day for 5 days, infected): 31 fold | AUC0-∞ [5, 16]: 10000 nmol·days/L and 5300 nmol·days/L | t1/2 (terminal elimination half-life) [5, 16]: 85 days and 24 days | AUClast [5, 16]: 7300 nmol·days/L and 4100 nmol·days/L | median AUC0-∞ of 20 mg/kg group relative to monkey 691 (10 mg/kg group) ([5]; oral DB868, infected): twice | median terminal elimination half-life of 20 mg/kg group relative to monkey 691 (10 mg/kg group) ([5]; oral DB868, infected): twice | IC50 [6]: 14 nM | detection of active compound formed from DB868 [7]: at the limit of detection in UV mode

CONC(=N)c1ccc(-c2ccc(-c3ccc(C(=N)NOC)cc3)o2)cc1 [pafuramidine, 2,5-bis(4-amidinophenyl)furan-bis-O-methylamidoxime]
liver injury ([8]; extended phase I clinical trial in humans): transient liver injury | patients with unexpected severe kidney injury ([8]; five patients): ~6% | classical kidney injury biomarkers, BUN and serum creatinine ([9]; mouse diversity panel): remained unchanged | urinary kidney injury molecule-1 (KIM-1) ([9]; sensitive strains of 34 inbred mouse strains): marked elevations | increase in KIM-1 ([10]; oral 12 mg/kg/day×28 days, one week post-LDD): 13 fold | increase in ALT compared to untreated rats ([10]; rats, 12 mg/kg/day for 4 weeks): 18 fold | dose required to achieve complete cure [11]: 10 mg/kg
